Results taken from patent US11058673B2, “Dosage regimen of MDM2 inhibitor for treating cancers” (DAIICHI SANKYO COMPANY, LIMITED, priority 2015, dated 2021).
Like-named read-outs stand apart in the source and are kept apart here.

How the values were obtained:
[1] = Highest Non-Severely Toxic Dose in dogs; type: in vivo
Protocol: (§1) Dosage regimen Compound 2 was administered as an oral capsule comprising a pharmaceutically acceptable carrier (diluting agent, plasticizer, disintegrator and lubricant). Compound 2 was administered to the subjects once daily on Days 1 to 21 of a 28-day cycle (QD21/28). An alternative drug administration schedule was considered after establishing the maximum tolerated dose (MTD) of Compound 2 in solid tumor and/or lymphoma subjects using the above schedule, and upon review of the human safety. Subjects were administered Compound 2 in fasting conditions by avoiding food for 2 hours before and 1 hour after drug administration. Dose-escalation of Compound 2 to determine the MTD was guided by the modified continuous reassessment method (mCRM) using a Bayesian logistic regression model (BLRM) following escalation with overdose control (EWOC) principle. Dose escalation began in subjects with advanced solid tumors or lymphomas with a starting dose of Compound 2 at 15 mg/day based on the Highest Non-Severely Toxic Dose (HNSTD) of 3 mg/kg in dogs.

[2] = type: in vivo, human; conditions: for maximum tolerated dose (MTD): oral
Protocol: as §1
Dose Limiting Toxicity Definition A DLT was defined as any treatment-emergent adverse event (TEAE) not attributable to disease or disease-related processes that occurred during the observation period (Cycle 1) in each dose-level cohort and was grade 3 or higher according to NCI CTCAE, version 4. Subjects who were unable to complete at least 75% of the prescribed doses (i.e., 16 days) of Compound 2 in the first 21 days as a result of nondisease-related≥grade 2 adverse event (AE) were considered to have a DLT.
Treatment Arms In this open-label, single-arm, dose escalation study, each subject received Compound 2 orally once daily on Days 1 to 21 of a 28-day cycle.
Safety Parameters The safety profile was based on AEs, physical examination findings, vital sign measurements, clinical laboratory measurements, and ECG recordings. All subjects receiving at least 1 dose of Compound 2 were included in the safety analyses.

[3] = system: advanced solid tumor or lymphoma; assay: Phase 1 clinical study: tumor response (RECIST v1.1) and progression free survival, overall population; type: in vivo, human
Protocol: (§2) • 1. Has a histologically or cytologically documented advanced solid tumor or lymphoma that has relapsed from or is refractory to standard treatment, or for which no standard treatment is available. • 2. Man or woman≥18 years old. • 3. Has an Eastern Cooperative Oncology Group (ECOG) performance status 0-1. • 4. Has adequate bone marrow function, adequate renal function, adequate hepatic function, and adequate blood clotting function.
(§3) Tumor assessment Tumor assessment was performed at baseline, within every 2 cycles while the subject remained on study for the first 9 cycles and then every 3 cycles thereafter (start of Cycles 3, 5, 7, and 9, then Cycles 12, 15, etc.).
(§4) Tumor Response Response assessment was performed according to the Schedule of Events or if disease progression was suspected. Radiographic assessment included computerized tomography (CT) of all affected sites. In addition, subjects with lymphoma underwent a (^18F) fluorodeoxyglucose-positron emission tomography FDG-PET scan. Tumor responses were assessed by the physicians according to RECIST 1.1 criteria for subjects with solid tumors and revised IWG criteria for subjects with lymphoma. Descriptive statistics for the greatest percent change in the sum of longest dimensions (SLD) of measurable tumors were provided. A waterfall plot of the greatest percent change from screening in the SLD for each subject was presented for subjects with advanced solid malignancies and lymphomas. In addition, descriptive statistics for FDG-PET scans were provided for lymphoma subjects according to revised IWG criteria.

Non-Liposarcoma = assay: Phase 1 clinical study: progression free survival, non-liposarcoma subjects; type: in vivo, human; conditions: Non-Liposarcoma (N = 14)
Protocol: as §2, §3, §4

Liposarcoma = assay: Phase 1 clinical study: progression free survival, liposarcoma subjects; type: in vivo, human; conditions: Liposarcoma (N = 13)
Protocol: as §2, §3, §4

[4] = Overall (N = 27), Kaplan-Meier estimate

SMILES: CC1(C)CCC2(CC1)N[C@@H](C(=O)N[C@@H]1CC[C@@H](C(N)=O)OC1)[C@H](c1ccnc(Cl)c1F)[C@]21C(=O)Nc2cc(Cl)ccc21.Cc1ccc(S(=O)(=O)O)cc1 [Compound 2, (3′R,4′S,5′R)—N-[(3R,6S)-6-carbamoyltetrahydro-2H-pyran-3-yl]-6″-chloro-4′-(2-chloro-3-fluoropyridin-4-yl)-4,4-dimethyl-2″-oxo-1″,2″-dihydrodispiro[cyclohexane-1,2′-pyrrolidine-3′,3″-indole]-5′-carboxamide mono(4-methylbenzenesulfonate) monohydrate]
- Highest Non-Severely Toxic Dose (HNSTD) [1]: 3 mg/kg
- TEAE anemia ([2]; human, in vivo): 38.2%
- TEAE constipation ([2]; human, in vivo): 23.5
- TEAE decreased appetite ([2]; human, in vivo): 50.0%
- TEAE diarrhea ([2]; human, in vivo): 35.3%
- TEAE dysgeusia ([2]; human, in vivo): 20.6%
- TEAE dyspnoea ([2]; human, in vivo): 26.5%
- TEAE fatigue ([2]; human, in vivo): 52.9%
- TEAE grade 3 or higher in severity ([2]; human, in vivo): 55.9%
- TEAE hyperglycemia ([2]; human, in vivo): 29.4%
- TEAE hypoalbuminemia ([2]; human, in vivo): 32.4%
- TEAE nausea ([2]; human, in vivo): 64.7%
- TEAE neutropenia ([2]; human, in vivo): 17.6%
- TEAE peripheral edema ([2]; human, in vivo): 17.6%
- TEAE thrombocytopenia ([2]; human, in vivo): 32.4%
- TEAE vomiting ([2]; human, in vivo): 35.3%
- Treatment emergent adverse events (TEAE) of any grade at any treatment cycle irrespective of causality ([2]; human, in vivo): 97.1%
- most common drug-related TEAEs ([2]; human, in vivo): hematological (thrombocytopenia, anemia, neutropenia), gastrointestinal (nausea, vomiting and diarrhea), and fatigue
- total subjects who experienced DLTs ([2]; human, in vivo): 6 subjects
- maximum tolerated dose (MTD) ([2]; QD 21/28 schedule): 120 mg
- maximum tolerated dose (MTD) ([2]; QD 28/28 schedule): 90 mg
- dose tolerated ([2]; patients with hematological malignancies): 160 mg
- Subjects without Events (Censored) (%) ([3]; Overall (N = 27)): (55.6) %
- Progression-Free Survival, Median [3, 4]: 5.72 months
- Rate (%) of Being Alive Without Progresion at Least 3 months [3, 4]: 74.5%
- Rate (%) of Being Alive Without Progresion at Least 6 months [3, 4]: 47.4%
- Rate (%) of Being Alive Without Progresion at Least 9 months [3, 4]: 29.7%
- Rate (%) of Being Alive Without Progresion at Least 12 months [3, 4]: 29.7%
- Subjects with Events (%) ([3]; PFS events, Overall (N = 27)): (44.4) %
- subjects with stable disease (SD) as the best tumor response ([3]; RECIST v1.1, out of 23 evaluable subjects): 21 subjects
- subjects with >10% tumor shrinkage ([3]; of 23 evaluable subjects): 3 subjects
- Subjects without Events (Censored) (%) (Non-Liposarcoma): (35.7) %
- Progression-Free Survival, Median (Non-Liposarcoma; Kaplan-Meier estimate): 4.04 months
- Rate (%) of Being Alive Without Progresion at Least 3 months (Non-Liposarcoma; Kaplan-Meier estimate): 58.4%
- Rate (%) of Being Alive Without Progresion at Least 6 months (Non-Liposarcoma; Kaplan-Meier estimate): 23.4%
- Rate (%) of Being Alive Without Progresion at Least 9 months (Non-Liposarcoma; Kaplan-Meier estimate): 11.7%
- Rate (%) of Being Alive Without Progresion at Least 12 months (Non-Liposarcoma; Kaplan-Meier estimate): 11.7%
- Subjects with Events (%) (Non-Liposarcoma; PFS events): (64.3) %
- Subjects without Events (Censored) (%) (Liposarcoma): (76.9) %
- Rate (%) of Being Alive Without Progresion at Least 3 months (Liposarcoma; Kaplan-Meier estimate): 91.7%
- Rate (%) of Being Alive Without Progresion at Least 6 months (Liposarcoma; Kaplan-Meier estimate): 76.4%
- Rate (%) of Being Alive Without Progresion at Least 9 months (Liposarcoma; Kaplan-Meier estimate): 57.3%
- Rate (%) of Being Alive Without Progresion at Least 12 months (Liposarcoma; Kaplan-Meier estimate): 57.3%
- Subjects with Events (%) (Liposarcoma; PFS events): (23.1) %
